From patent US6852696B2, “Inhibitors of glycosaminoglycans” (The University of Texas System, priority 1999, dated 2005)

Assays:
[1] = tested on: B16-F10 melanoma cells; experiment: In vitro growth of B16-F10 melanoma cells (3H-thymidine uptake); format: cell-based, mouse; conditions: 3H-thymidine uptake at 24 hr
Method: FIGS. 4A-C. Impact of Pep-1 on lung metastasis of melanoma. (FIG. 4A) B16-F10 melanoma cells were suspended (4×10^5 cells/ml) in PBS containing Pep-1 monomer (2 or 3 mg/ml) (circles) or 2% DMSO alone (triangles). C57BL/6 mice received i.v. injection of these cell suspensions (500 μl/animal) and were examined for survival. Data shown are the cumulative survival curves from four independent experiments (n=37 for Pep-1 and n=20 for PBS control). […] (FIG. 4B) B16-F10 melanoma cells (1×10^5 cells/animal) were s.c. injected into the back of C57BL/6 mice. Pep-1 or RP (40 μg/injection) was injected locally into the tumor inoculation sites 0. 3. and 6 days after tumor injection. Data shown are the means+/−s.e.m. (n=10) of tumor sizes and tumor weights measured 10 days after tumor inoculation. (FIG. 4C) B16-F10 melanoma cells (2×10^5 cells/well) were cultured in the presence of the indicated concentrations of Pep-1 (closed circles) or PR (open circles). Data shown are the means+/−s.e.m.(n=3) of ^3H-thymidine uptake at 24 hr.

[2] = tested on: Langerhans cells (LC); conditions: co-pending application 60/126,475; cited from earlier work

For GAHWQFNALTVR [Pep-1], the “effect on in vitro growth of B16-F10 melanoma cells” value [1] is given as “no apparent effects” and the “inhibition of sensitization phase / hapten-triggered LC migration” value [2] is given as “blocking hapten-triggered migration of Langerhans cells”.
